In ChEMBL document CHEMBL1201862, “PubChem BioAssay data set” (2004):
Activity calls are given as the source filed them.

Assays:
Ephrin type-A receptor 4 = Ephrin type-A receptor 4 (Mus musculus, UniProt Q03137); test: EphA4 ligand-binding antagonists – biochemical, colorimetric, mouse EphA4, primary screen (AID 689); type: functional
Protein skinhead-1 = target: T1, Protein skinhead-1 (Caenorhabditis elegans, UniProt P34707); type: functional
T1 sequence (P34707 whole entry): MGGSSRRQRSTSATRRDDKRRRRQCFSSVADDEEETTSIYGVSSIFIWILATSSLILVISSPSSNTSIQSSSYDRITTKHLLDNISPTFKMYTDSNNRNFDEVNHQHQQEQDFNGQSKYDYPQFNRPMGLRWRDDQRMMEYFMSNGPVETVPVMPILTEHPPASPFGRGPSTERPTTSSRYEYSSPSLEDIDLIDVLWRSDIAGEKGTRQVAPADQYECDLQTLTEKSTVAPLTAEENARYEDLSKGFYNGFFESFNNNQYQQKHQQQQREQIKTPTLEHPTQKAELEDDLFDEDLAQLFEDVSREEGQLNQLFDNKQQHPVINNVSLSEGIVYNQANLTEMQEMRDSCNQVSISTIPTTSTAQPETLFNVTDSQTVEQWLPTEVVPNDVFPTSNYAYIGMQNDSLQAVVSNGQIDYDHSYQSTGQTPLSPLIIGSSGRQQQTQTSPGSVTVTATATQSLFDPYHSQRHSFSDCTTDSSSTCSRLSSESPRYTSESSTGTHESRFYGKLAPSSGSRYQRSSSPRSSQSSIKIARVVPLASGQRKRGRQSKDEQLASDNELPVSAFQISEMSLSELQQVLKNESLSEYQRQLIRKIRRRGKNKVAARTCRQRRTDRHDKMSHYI

Cytochrome P450 2D6 = Cytochrome P450 2D6 (Homo sapiens, UniProt P10635);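 further: CYP2D6 member of a cytochrome P450 panel assay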
Chain of Cytochrome P450 2D6 (P10635 whole entry): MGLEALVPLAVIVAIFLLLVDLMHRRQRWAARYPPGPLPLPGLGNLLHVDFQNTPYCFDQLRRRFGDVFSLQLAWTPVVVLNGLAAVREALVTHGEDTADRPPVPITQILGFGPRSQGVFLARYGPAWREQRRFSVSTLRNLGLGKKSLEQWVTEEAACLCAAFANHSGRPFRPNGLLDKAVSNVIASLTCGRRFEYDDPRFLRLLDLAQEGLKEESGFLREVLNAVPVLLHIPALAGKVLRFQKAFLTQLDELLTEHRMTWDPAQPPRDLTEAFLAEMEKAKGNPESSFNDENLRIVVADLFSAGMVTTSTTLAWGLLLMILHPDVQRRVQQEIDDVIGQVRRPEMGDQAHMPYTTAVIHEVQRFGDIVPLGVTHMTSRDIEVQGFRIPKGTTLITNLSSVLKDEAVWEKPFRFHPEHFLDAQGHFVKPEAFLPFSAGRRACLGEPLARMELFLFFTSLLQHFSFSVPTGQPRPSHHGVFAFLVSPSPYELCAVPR

[1] = target: Dual specificity tyrosine-phosphorylation-regulated kinase 1A (Rattus norvegicus, UniProt Q63470); type: biochemical, Homo sapiens
[2] = viability loss in HeLa cells – cytotoxicity control for MgcRacGAP inhibitor project, dose response (AID 624300); type: functional
[3] = target: T2, Rac GTPase-activating protein 1 (Homo sapiens, UniProt Q9H0H5); test: blockers of MgcRacGAP-driven Rac1 GTP hydrolysis – biochemical, ADP Hunter fluorescence, primary and confirmatory, confirmation (AID 624330); type: functional
T2 sequence (Q9H0H5 whole entry): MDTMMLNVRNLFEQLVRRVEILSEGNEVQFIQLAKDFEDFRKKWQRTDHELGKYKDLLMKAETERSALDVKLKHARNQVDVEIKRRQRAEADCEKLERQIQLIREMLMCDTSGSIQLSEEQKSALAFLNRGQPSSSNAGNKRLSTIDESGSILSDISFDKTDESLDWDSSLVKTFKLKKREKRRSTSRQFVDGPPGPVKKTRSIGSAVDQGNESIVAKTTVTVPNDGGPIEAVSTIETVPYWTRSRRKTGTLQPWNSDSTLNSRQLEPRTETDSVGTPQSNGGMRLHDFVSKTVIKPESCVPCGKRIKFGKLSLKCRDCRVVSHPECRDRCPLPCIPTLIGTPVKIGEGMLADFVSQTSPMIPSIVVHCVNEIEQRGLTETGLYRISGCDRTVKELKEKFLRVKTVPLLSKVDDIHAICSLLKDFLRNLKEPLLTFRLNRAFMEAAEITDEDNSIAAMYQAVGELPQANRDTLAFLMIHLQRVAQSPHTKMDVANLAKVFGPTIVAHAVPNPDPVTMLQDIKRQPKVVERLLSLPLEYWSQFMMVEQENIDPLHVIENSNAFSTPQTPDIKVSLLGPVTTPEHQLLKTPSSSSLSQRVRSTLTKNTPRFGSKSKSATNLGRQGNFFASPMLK

Prothrombin = Prothrombin (Homo sapiens, UniProt P00734); test: Thrombin 1536 HTS Dose Response Confirmation. [Related pubchem assays: 1046 (Thrombin 1536 HTS; hits were confirmed in this assay)]; type: functional
[4] = target: T3, Probable nicotinate-nucleotide adenylyltransferase (Staphylococcus aureus (strain N315), UniProt P65502); type: functional, Staphylococcus aureus subsp. aureus N315;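 on IC50 Mean: confirmatory dose-response retesting of NadD inhibitor hits first found in an ultra-high-throughput screen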
T3 sequence (P65502 whole entry): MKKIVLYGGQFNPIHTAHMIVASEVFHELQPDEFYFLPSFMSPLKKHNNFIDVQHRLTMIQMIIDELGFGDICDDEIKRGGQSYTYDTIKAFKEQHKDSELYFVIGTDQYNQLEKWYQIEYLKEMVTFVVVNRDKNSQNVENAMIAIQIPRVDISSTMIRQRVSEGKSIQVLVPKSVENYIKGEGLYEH

[5] = target: T3, Probable nicotinate-nucleotide adenylyltransferase; type: functional, Staphylococcus aureus subsp. aureus N315; conditions: read-out: IC50_Mean
[6] = target: T4, Voltage-gated N-type calcium channel alpha-1B subunit/Amyloid beta A4 precursor protein-binding family A member 1 (Homo sapiens, UniProt Q00975+Q02410); type: protein assay
T4 sequence (Q00975 whole entry): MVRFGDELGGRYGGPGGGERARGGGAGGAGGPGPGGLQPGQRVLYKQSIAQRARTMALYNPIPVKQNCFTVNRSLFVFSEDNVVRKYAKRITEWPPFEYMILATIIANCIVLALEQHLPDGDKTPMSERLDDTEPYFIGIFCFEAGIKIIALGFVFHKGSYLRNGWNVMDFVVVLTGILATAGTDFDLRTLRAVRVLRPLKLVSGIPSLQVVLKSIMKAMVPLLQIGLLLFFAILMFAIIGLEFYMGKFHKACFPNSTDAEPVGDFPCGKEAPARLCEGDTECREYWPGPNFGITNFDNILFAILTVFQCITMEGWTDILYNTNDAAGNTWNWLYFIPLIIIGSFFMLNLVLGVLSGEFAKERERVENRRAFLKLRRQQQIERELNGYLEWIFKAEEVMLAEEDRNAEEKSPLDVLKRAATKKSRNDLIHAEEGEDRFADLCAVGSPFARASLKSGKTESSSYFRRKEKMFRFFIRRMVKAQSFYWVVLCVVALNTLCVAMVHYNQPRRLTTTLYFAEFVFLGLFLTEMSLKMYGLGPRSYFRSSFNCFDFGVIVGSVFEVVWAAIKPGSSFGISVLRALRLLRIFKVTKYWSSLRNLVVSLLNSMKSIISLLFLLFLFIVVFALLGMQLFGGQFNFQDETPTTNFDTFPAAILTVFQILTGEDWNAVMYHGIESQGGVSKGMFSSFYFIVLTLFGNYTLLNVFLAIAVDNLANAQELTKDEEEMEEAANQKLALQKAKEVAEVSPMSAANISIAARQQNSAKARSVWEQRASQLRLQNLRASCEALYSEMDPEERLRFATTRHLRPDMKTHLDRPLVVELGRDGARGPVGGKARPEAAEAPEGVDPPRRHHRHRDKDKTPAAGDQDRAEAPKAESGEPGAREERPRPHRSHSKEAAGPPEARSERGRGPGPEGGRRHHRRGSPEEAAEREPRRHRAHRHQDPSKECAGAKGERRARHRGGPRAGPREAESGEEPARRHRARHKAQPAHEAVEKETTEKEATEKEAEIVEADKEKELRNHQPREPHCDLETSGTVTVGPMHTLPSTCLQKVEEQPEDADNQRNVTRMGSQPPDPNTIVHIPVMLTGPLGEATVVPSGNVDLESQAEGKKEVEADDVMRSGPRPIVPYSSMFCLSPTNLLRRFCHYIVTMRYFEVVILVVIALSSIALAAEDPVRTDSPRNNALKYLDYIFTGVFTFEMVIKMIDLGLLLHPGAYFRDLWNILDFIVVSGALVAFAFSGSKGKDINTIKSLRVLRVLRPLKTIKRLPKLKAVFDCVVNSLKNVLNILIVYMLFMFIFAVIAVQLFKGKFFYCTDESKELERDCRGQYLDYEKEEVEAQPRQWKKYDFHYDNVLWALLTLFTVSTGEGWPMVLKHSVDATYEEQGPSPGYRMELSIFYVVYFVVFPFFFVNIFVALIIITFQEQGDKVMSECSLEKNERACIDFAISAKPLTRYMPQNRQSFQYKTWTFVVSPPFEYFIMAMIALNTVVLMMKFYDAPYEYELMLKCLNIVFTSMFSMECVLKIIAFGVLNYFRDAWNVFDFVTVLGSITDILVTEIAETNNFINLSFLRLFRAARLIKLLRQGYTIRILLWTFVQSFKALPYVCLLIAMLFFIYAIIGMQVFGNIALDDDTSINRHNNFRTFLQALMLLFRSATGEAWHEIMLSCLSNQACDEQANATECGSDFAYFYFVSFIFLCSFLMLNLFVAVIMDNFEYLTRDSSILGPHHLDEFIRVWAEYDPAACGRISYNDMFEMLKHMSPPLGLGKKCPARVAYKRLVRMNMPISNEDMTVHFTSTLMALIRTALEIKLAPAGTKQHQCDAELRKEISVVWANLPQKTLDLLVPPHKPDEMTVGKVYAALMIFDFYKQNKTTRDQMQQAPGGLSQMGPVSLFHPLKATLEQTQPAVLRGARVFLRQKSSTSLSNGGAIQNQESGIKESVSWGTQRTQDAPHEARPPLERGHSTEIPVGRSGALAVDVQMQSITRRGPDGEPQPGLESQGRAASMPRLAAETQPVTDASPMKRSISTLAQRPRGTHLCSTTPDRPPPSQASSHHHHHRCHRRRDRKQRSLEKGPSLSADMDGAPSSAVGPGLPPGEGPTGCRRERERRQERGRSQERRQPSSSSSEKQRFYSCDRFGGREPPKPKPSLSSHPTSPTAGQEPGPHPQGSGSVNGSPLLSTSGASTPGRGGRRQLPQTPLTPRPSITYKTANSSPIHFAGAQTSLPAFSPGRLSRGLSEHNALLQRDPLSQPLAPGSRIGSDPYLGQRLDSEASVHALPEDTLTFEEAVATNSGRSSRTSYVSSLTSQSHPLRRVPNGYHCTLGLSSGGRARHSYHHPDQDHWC
T4 sequence (Q02410 whole entry): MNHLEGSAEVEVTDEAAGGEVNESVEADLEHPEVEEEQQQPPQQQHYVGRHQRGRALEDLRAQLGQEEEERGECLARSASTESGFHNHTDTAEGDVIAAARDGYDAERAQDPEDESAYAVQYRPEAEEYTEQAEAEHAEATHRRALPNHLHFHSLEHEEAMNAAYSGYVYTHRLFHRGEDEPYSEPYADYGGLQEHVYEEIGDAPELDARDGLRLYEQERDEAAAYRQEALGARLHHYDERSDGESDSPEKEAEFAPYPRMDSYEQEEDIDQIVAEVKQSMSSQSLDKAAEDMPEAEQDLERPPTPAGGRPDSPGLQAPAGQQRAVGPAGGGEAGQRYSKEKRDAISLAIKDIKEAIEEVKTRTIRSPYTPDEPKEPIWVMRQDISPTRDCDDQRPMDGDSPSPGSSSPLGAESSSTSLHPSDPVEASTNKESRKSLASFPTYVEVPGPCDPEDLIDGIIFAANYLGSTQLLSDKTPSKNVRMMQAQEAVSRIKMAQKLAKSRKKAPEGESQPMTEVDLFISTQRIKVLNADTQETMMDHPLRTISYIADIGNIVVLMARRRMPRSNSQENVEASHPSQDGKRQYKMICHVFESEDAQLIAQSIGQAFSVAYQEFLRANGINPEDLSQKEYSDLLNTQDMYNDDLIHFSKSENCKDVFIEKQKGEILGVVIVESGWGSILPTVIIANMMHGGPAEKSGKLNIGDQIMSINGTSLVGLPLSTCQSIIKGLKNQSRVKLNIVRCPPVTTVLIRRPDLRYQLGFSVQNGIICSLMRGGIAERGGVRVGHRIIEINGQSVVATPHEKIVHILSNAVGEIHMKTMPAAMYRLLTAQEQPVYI

[7] = target: T4, Voltage-gated N-type calcium channel alpha-1B subunit/Amyloid beta A4 precursor protein-binding family A member 1; type: protein assay; remark: listed apart in the source
H9c2 = test: cells; type: functional, cell-based; conditions: Rattus norvegicus, H9c2, Myocardium;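 further: confirmatory concentration-response retest of ultra-high-throughput screening hits for modulation of myocardial damage; cell death induced by hydrogen peroxide oxidative stress; compound pretreatment for 60 min then peroxide exposure for 2 h; potency is for protecting the cells against peroxide damage rather than for killing them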
Caspase-6 = target: T5, Caspase-6 (Homo sapiens, UniProt P55212); test: inhibition of CASP6 peptide cleavage – biochemical, VEID-R110 fluorescence, cherry-pick, dose response (AID 720632)
T5 sequence (P55212 whole entry): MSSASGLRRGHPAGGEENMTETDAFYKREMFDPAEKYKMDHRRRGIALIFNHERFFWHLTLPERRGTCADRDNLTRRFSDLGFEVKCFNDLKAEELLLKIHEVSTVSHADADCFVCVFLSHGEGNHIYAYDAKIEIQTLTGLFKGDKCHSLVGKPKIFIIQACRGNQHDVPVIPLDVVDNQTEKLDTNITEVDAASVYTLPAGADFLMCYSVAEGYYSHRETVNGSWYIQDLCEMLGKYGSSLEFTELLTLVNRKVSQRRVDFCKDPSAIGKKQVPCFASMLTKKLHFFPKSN

[8] = HIV-1 AD8 envelope cell-cell fusion blockers – cherry-pick, dose response (AID 652062); type: functional, cell-based;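 further: luciferase signal from cell-cell fusion driven by HIV-1 clade B AD8 Env; potency is for inhibitors of fusion seen as a drop in luminescence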
[9] = Late stage assay provider results from the probe development effort to identify selective inhibitors of heat shock protein 90 (HSP90): Absorbance-based cell proliferation assay in SKBR3 cells.; type: functional; conditions: SK-BR-3
[10] = Late stage assay provider results from the probe development effort to identify selective inhibitors of heat shock protein 90 (HSP90): Absorbance-based cell proliferation assay in MCF7 cells.; type: functional
[11] = growth inhibition of yeast DHODH-expressing 3D7 parasites – SYBR Green, dry powder samples, dose response (AID 1159570); type: functional, cell-based;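 further: parasite growth measured after 72 hours of compound exposure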
[12] = P. falciparum Dd2 growth inhibitors, dose response, SYBR Green, cherry-picked samples (AID 1159567); type: functional, cell-based
[13] = Dd2 malaria parasite growth inhibition potency – SYBR Green, dry powder samples, dose response (AID 1159566); type: functional, cell-based;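 further: potency for growth inhibition with lower SYBR green DNA signal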
[14] = growth inhibition of PfATP4-mutant resistant parasites – NITD609-resistant line, SYBR Green, dry powder, dose response (AID 1159571); type: functional, cell-based;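 further: parasites synchronized at ring stage by sorbitol before testing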
[15] = toxicity to human hepatoma HepG2 cells – cell-based, cherry-picked samples, cytotoxicity control, dose response (AID 1159577); type: functional
[16] = Luminescence Cell-Based Dose Response HTS to Identify Inhibitors of 5'UTR Stem-Loop Driven Prion Protein mRNA Translation in H4 Neuroglioblastoma Cells. [Related pubchem assays: 1827 (Project Summary), 1813 (Primary HTS)]; type: functional
cells [17] = type: functional, cell-based
[18] = target: T6, Trace amine-associated receptor 1 (Homo sapiens, UniProt Q96RJ0); test: Fluorescence-based cell-based high throughput dose response assay to identify agonists of the human trace amine associated receptor 1 (TAAR1).; type: functional
T6 sequence (Q96RJ0 whole entry): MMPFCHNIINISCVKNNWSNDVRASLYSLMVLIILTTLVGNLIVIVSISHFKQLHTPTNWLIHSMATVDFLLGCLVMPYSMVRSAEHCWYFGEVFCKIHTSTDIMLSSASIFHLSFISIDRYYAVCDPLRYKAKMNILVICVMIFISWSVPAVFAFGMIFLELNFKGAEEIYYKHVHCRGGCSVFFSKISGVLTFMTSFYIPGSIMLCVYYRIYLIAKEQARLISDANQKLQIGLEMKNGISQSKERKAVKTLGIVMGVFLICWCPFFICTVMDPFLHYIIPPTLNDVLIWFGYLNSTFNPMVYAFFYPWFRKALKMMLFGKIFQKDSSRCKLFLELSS

[19] = target: T6, Trace amine-associated receptor 1; test: Counterscreen for agonists of the human trace amine associated receptor 1 (hTAAR1): Fluorescence-based cell-based high throughput dose response assay to identify hTAAR1 agonist that also desensitize TAAR1 receptor response.; type: functional
cells [20] = type: functional, cell-based; remark: listed apart in the source
[21] = A549 cell cytotoxicity, dose response, cytotoxicity control, plate reader, cherry-pick, antagonist series (AID 743412); type: functional, cell-based
[22] = toxicity toward HepG2 liver cells – cell-based, plate reader, cherry-pick, antagonist series, cytotoxicity control, dose response (AID 743416); type: functional
[23] = blockers of bursicon-stimulated LGR2 cAMP reporter – cell-based, HEK293, CRE-luciferase reporter, cherry pick, set 2, dose response (AID 743343); type: functional;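 further: transfected cells were stimulated with diluted bursicon conditioned medium after compound addition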
[24] = blockade of melanocortin 4 receptor signaling – cell-based, plate reader, cherry pick, counter-screen for LGR2 antagonist project, dose response (AID 743444); type: functional;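 further: transfected HEK 293 cells stimulated with alpha-MSH peptide; potency of inhibitors of the alpha-MSH evoked signal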

Chain of Ephrin type-A receptor 4 (Q03137 whole entry): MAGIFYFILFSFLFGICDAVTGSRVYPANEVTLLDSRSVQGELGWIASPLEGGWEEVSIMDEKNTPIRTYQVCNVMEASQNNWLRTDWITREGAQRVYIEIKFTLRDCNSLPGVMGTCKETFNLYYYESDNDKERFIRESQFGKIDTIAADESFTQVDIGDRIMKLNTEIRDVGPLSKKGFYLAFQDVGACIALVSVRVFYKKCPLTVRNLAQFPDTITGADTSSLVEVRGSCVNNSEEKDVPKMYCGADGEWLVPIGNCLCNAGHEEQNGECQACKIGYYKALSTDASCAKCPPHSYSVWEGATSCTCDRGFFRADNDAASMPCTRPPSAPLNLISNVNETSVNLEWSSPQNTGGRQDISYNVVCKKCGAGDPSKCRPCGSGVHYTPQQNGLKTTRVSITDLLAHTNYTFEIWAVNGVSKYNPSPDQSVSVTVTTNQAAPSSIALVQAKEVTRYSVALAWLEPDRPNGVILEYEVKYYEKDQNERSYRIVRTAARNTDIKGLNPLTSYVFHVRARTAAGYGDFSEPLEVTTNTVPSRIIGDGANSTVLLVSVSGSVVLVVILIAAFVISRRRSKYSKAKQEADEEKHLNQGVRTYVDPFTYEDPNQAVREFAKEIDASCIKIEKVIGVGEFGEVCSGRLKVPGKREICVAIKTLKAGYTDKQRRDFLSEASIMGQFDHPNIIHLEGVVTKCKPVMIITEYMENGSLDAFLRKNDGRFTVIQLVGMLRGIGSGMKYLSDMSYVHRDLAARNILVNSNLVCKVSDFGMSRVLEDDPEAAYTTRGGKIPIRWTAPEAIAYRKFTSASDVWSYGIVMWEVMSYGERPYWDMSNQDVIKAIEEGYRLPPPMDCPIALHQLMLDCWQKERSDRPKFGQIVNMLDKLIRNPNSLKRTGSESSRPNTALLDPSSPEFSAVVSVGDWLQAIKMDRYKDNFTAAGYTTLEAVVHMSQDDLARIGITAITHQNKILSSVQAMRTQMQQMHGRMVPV

Structure (SMILES): CCOc1ccc(/C=C/C2=Cc3c(sc(NC(=O)CSc4nnc(N)[nH]4)c3C#N)C(C)(C)C2)cc1
- IC50 (Ephrin type-A receptor 4): 1.79 µM (active)
- IC50 (Protein skinhead-1): 60.8 µM (inactive)
- AC50 (Cytochrome P450 2D6): 1.78 µM (inconclusive)

Structure (SMILES): COc1cc(/C=C2\SC(Nc3ccccc3)=NC2=O)cc(Cl)c1O
- AC50 [1]: 7.03 µM (active)
- CC50 [2]: 100 µM (active)
- IC50 [3]: 55.7 µM (active)

Structure (SMILES): O=C(c1cccc([N+](=O)[O-])c1)n1nc(-c2ccccc2)nc1NCc1ccccc1
- IC50 (Prothrombin): 0.521 µM (active)

Structure (SMILES): N#Cc1sc2nc(-c3cccs3)cc(-c3ccccc3)c2c1N
- IC50 (Ephrin type-A receptor 4): > 100 µM (not active)

Structure (SMILES): Fc1ccc(-c2cc3nc4c(c(N5CCOCC5)n3n2)CCCC4)cc1
- IC50 (Ephrin type-A receptor 4): > 100 µM (not active)

Structure (SMILES): COc1ccc(S(=O)(=O)CCc2nnc(NC(=O)c3cccs3)s2)cc1
- IC50 (Prothrombin): > 50 µM (not active)

Structure (SMILES): CCc1nc(Nc2ccc(O)cc2)c2oc3ccccc3c2n1
- CC50 [2]: 87.6 µM (active)
- IC50 [3]: 18.2 µM (active)

Structure (SMILES): COc1ccc(NC(=O)N(C)C[C@H]2Oc3ccc(NC(=O)c4ccncc4)cc3C(=O)N([C@H](C)CO)C[C@@H]2C)cc1
- IC50 [4]: 27.8 µM (active)
- IC50 [5]: 40.4 µM (active)

Structure (SMILES): Cc1cc(N(CCCl)CCCl)ccc1C=NNC(=O)Cc1cc(=O)oc2cc(O)ccc12
- IC50 [4]: 8.75 µM (active)
- IC50 [5]: 28.7 µM (active)

Structure (SMILES): Cn1c2ccccc2c2cc(/C=N/NC(=O)c3cc(O)ccc3O)ccc21
- IC50 [6]: 15.2 µM (active)
- IC50 [7]: 4.94 µM (active)
- IC50 (H9c2): > 79 µM (inactive)
- IC50 [4]: 18 µM (active)
- IC50 [5]: 37.3 µM (active)
- AC50 (Caspase-6): 43.1 µM (active)

Structure (SMILES): CCCCS(=O)(=O)N1CCN(C(=O)C(=O)c2cccc(C(F)(F)F)c2)CC1
- AC50 [8]: 49.5 µM (active)

Structure (SMILES): CCOc1ccccc1N/C=C1\C(=O)OC(=O)c2ccccc21
- IC50 [9]: > 100 µM (inactive)
- IC50 [10]: > 100 µM (inactive)

Structure (SMILES): CCCCc1ccc(NC(=O)c2cc(=O)c(OC)c[nH]2)cc1
- IC50 [9]: > 100 µM (inactive)
- IC50 [10]: > 100 µM (inactive)

Structure (SMILES): COc1ccc2oc(=O)c(Br)cc2c1
- IC50 [9]: 80.2 µM (inactive)
- IC50 [10]: > 100 µM (inactive)

Structure (SMILES): O=C1OC(=O)/C(=C\NC23CC4CC(CC(C4)C2)C3)C=C1Br
- IC50 [9]: 12.9 µM (inactive)
- IC50 [10]: 2.6 µM (active)

Structure (SMILES): CCOc1ccc(NC(=O)c2ccc(CNc3c(N4CCCC4)c(=O)c3=O)cc2)cc1
- IC50 (Prothrombin): > 50 µM (not active)

Structure (SMILES): C/N=C1/S/C(=C\c2ccc(O)c(Br)c2)C(=O)N1C
- AC50 [1]: 0.194 µM (active)
- CC50 [2]: 74.9 µM (active)
- IC50 [3]: 42 µM (active)

Structure (SMILES): COc1ccc2c3c(n(C)c2c1)[C@@H](CO)N(C(=O)C1CC1)CC31CN(C(=O)Nc2cccc(F)c2)C1
- AC50 [11]: 0.209 µM (active)
- AC50 [12]: 0.692 µM (active)
- AC50 [13]: 0.196 µM (active)
- AC50 [14]: 0.164 µM (active)

Structure (SMILES): COc1ccc2c3c([nH]c2c1)[C@H](CO)N(S(=O)(=O)c1ccc(C)cc1)CC31CCN(C(=O)Cc2cccnc2)CC1
- AC50 [11]: 0.54 µM (active)
- AC50 [12]: 1.19 µM (active)
- AC50 [13]: 0.332 µM (active)
- AC50 [15]: > 39 µM (inactive)
- AC50 [14]: 0.265 µM (active)

Structure (SMILES): CN1C(=O)c2cc(NC(=O)c3ccc4c(c3)OCO4)ccc2OC[C@@H]2O[C@@H](CC(=O)O)CC[C@@H]21
- AC50 [15]: 38.5 µM (active)

Structure (SMILES): COc1ccccc1-c1ccc2c(c1)[C@H]1[C@H](CCN1C(=O)C1CCC1)[C@H](CO)N2
- AC50 [12]: 5.25 µM (active)
- AC50 [15]: 30.5 µM (active)

Structure (SMILES): Cc1ccc(Nc2nc(N)c3ccccc3n2)cc1C
- EC50 [16]: 7.32 µM (active)
- IC50 (cells [17]): > 29.9 µM (inactive)
- EC50 [18]: 4.53 µM (active)
- IC50 [19]: 8.34 µM (active)
- EC50 (cells [20]): > 29.9 µM (inactive)
- AC50 [21]: 34 µM (active)
- AC50 [22]: 2.36 µM (active)
- AC50 [23]: 2.9 µM (active)
- AC50 [24]: 5 µM (active)
